Measured values reported in ChEMBL document CHEMBL1201862, “PubChem BioAssay data set” (2004).
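Dose response: 5 concentrations. Exposure: 48 h. Format: 96-well plates. Endpoint: linear interpolation; highest concentration if not reached. GI50 marks 50% less growth.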 The source made the active and inactive calls. Rule as the data show it: active = GI50 up to about 1.1 µM and inactive = higher.

Experiments:
Assay in all cases: NCI anticancer screen, dose series, 48 h
DMS-114 = tested on: DMS-114
DMS-273 = tested on: DMS-273
KM-20L2 = tested on: KM-20L2
LXFL 529 = tested on: LXFL 529
M19-MEL = tested on: M19-MEL
SNB-78 = tested on: SNB-78
XF498 = tested on: XF498
RXF 631 = tested on: RXF 631
HOP-18 = tested on: HOP-18

Row | SMILES | GI50 (DMS-114) | GI50 (DMS-273) | GI50 (KM-20L2) | GI50 (LXFL 529) | GI50 (M19-MEL) | GI50 (SNB-78) | GI50 (XF498) | GI50 (RXF 631) | GI50 (HOP-18)
1 | Cn1cc/c(=N\N=c2/ccn(C)c3ccccc23)c2ccccc21 | 14.4 µM (inactive) | 16.4 µM (inactive) | 13.1 µM (inactive) | 14.1 µM (inactive) | 18.7 µM (inactive) | 16.4 µM (inactive) | 14.1 µM (inactive) |  | 
2 | CCOC(=O)C(C)c1c(C(=O)c2ccc(C)nc2)c2ccccc2n1C (configuration not stated) | > 100 µM (inactive) | > 100 µM (inactive) | > 100 µM (inactive) | > 100 µM (inactive) | > 100 µM (inactive) | > 100 µM (inactive) | 83 µM (inactive) | > 100 µM (inactive) | 
3 | CN(C)CCSc1cccc(-c2cc(-c3cccc(SCCN(C)C)c3)nc(SCCN(C)C)n2)c1 |  |  | 1.71 µM (inactive) | 2.02 µM (inactive) |  | 2.42 µM (inactive) |  |  | < 0.01 µM (active)
4 | C=C(C)c1nc(Oc2ccccc2)nc(Oc2ccccc2)n1 | 3.01 µM (inactive) | 6.43 µM (inactive) | 9.98 µM (inactive) | 2 µM (inactive) | 2.88 µM (inactive) | 5.4 µM (inactive) | 1.73 µM (inactive) | 3.69 µM (inactive) | 16.6 µM (inactive)
5 | Cc1cc(N(CCC#N)S(=O)(=O)c2ccccc2)ccc1/C=N/c1ccc(C(=O)O)cc1 | 3.41 µM (inactive) | 6.61 µM (inactive) | 9.82 µM (inactive) | 1.76 µM (inactive) | 2.75 µM (inactive) | 12.3 µM (inactive) | 8.71 µM (inactive) |  | 3.24 µM (inactive)
6 | Cc1nc([N+](=O)[O-])cn1CC(=N)N | > 100 µM (inactive) | > 100 µM (inactive) | > 100 µM (inactive) | > 100 µM (inactive) | > 100 µM (inactive) |  |  | > 100 µM (inactive) | 
7 | Cc1cc(N(CCC#N)CCC#N)ccc1/N=N/c1ccc(S(N)(=O)=O)cc1 | > 100 µM (inactive) | > 100 µM (inactive) |  | > 100 µM (inactive) |  | > 100 µM (inactive) | 0.0413 µM (active) | > 100 µM (inactive) | 51.1 µM (inactive)
8 | CC(=O)N1[C@H](C(=O)O)CS[C@H]1c1ccncc1 | > 100 µM (inactive) |  | > 100 µM (inactive) | > 100 µM (inactive) | > 100 µM (inactive) | > 100 µM (inactive) |  |  | > 100 µM (inactive)
9 | CCCCCC(C[N+]1(C)CCOCC1)C(=O)/C=C/c1ccccc1 (configuration not stated) | 9.62 µM (inactive) | 2.91 µM (inactive) | 15.9 µM (inactive) | 3.18 µM (inactive) | 14.6 µM (inactive) | 14.1 µM (inactive) | 14.4 µM (inactive) |  | 14.8 µM (inactive)
10 | CCOC(=O)C1=C(NC)OC/C1=N\NC(=O)c1ccccc1O | 20.7 µM (inactive) | 23.1 µM (inactive) | 39.7 µM (inactive) | 39.8 µM (inactive) | 29.9 µM (inactive) | 96.6 µM (inactive) | 56.4 µM (inactive) |  | 14.8 µM (inactive)
11 | COc1ccc(OC(=O)CC2Cc3cc(OC)c(OC)c(OC)c3-c3ccc(SC)c(=O)cc32)cc1 (configuration not stated) | 0.348 µM (active) | 0.102 µM (active) | 0.169 µM (active) | 0.217 µM (active) | 5.74 µM (inactive) |  | 0.258 µM (active) | 0.281 µM (active) | 
12 | CN(C)/N=C(/c1nc2ccc([N+](=O)[O-])cc2nc1O)C(O)c1ccco1 (configuration not stated) | 16.4 µM (inactive) | 91 µM (inactive) | 21 µM (inactive) | 58.1 µM (inactive) | > 100 µM (inactive) | > 100 µM (inactive) | > 100 µM (inactive) |  | 
13 | C#C[C@]1(O)CCC2C3CCc4cc(Oc5nc(F)nc(-c6c7cc8ccccc8cc7c7n6CCS7)n5)ccc4C3CCC21C (some centres not stated) | 21.5 µM (inactive) | 23.8 µM (inactive) | 32.7 µM (inactive) | 39.5 µM (inactive) | 30.3 µM (inactive) | > 100 µM (inactive) | > 100 µM (inactive) |  | > 100 µM (inactive)
14 | O=P1(NCCCl)OCCC(OO)N1CCCl (configuration not stated) | 31.6 µM (inactive) | 47.3 µM (inactive) | > 100 µM (inactive) |  | 34.8 µM (inactive) | 34.2 µM (inactive) |  |  | 39.9 µM (inactive)
15 | CSC(SC)=C1Sc2cccc(Cl)c2S1 | 26.4 µM (inactive) | 46.2 µM (inactive) | 36.9 µM (inactive) | 69.8 µM (inactive) | 43.5 µM (inactive) | > 100 µM (inactive) | 29.9 µM (inactive) |  | > 100 µM (inactive)
16 | CCOc1ccccc1NC(=O)C(C#N)C1=C(Cl)C(=O)c2ccccc2C1=O (configuration not stated) | 0.743 µM (active) | 1.88 µM (inactive) | 1.93 µM (inactive) | 1.85 µM (inactive) | 0.177 µM (active) | 3.32 µM (inactive) | 2.29 µM (inactive) | 2.09 µM (inactive) | 1.5 µM (inactive)

Row | SMILES | GI50 (DMS-114) | GI50 (DMS-273) | GI50 (KM-20L2) | GI50 (LXFL 529) | GI50 (M19-MEL) | GI50 (SNB-78) | GI50 (XF498) | GI50 (RXF 631) | GI50 (HOP-18)
17 | COc1cc2c3c(c1OC)/C(=N/OS(=O)(=O)c1ccc(C)cc1)CC3N(S(=O)(=O)c1ccc(C)cc1)CC2 (configuration not stated) | > 100 µM (inactive) | > 100 µM (inactive) | > 100 µM (inactive) | > 100 µM (inactive) | > 100 µM (inactive) | 41.7 µM (inactive) | > 100 µM (inactive) | 66.1 µM (inactive) | > 100 µM (inactive)
18 | CN(C)C=[N+]=[N-] | > 100 µM (inactive) | > 100 µM (inactive) | > 100 µM (inactive) | > 100 µM (inactive) | > 100 µM (inactive) | > 100 µM (inactive) | > 100 µM (inactive) |  | > 100 µM (inactive)
19 | CCOC(=O)Cc1ccc2c(c1O)C(=O)c1c(ccc(CC(=O)OCC)c1O)C2=O | > 100 µM (inactive) | > 100 µM (inactive) | > 100 µM (inactive) | > 100 µM (inactive) | > 100 µM (inactive) | > 100 µM (inactive) | > 100 µM (inactive) |  | 28.4 µM (inactive)
20 | S=P1(c2ccccc2)Nc2ccc(Cl)cc2N1 (configuration not stated) | 26.6 µM (inactive) | > 100 µM (inactive) | > 100 µM (inactive) | 17.6 µM (inactive) | 14.2 µM (inactive) | 23.5 µM (inactive) | > 100 µM (inactive) | 85.7 µM (inactive) | > 100 µM (inactive)
21 | COc1ccccc1NC(=O)CC(=O)N1N=C(C)C(/N=N/c2ccc(S(N)(=O)=O)cc2)C1=O (configuration not stated) | > 100 µM (inactive) | > 100 µM (inactive) | > 100 µM (inactive) | > 100 µM (inactive) | > 100 µM (inactive) | > 100 µM (inactive) | > 100 µM (inactive) |  | > 100 µM (inactive)
22 | Cc1[nH]c2ccccc2c1C1CC(=O)NC1=O (configuration not stated) | > 100 µM (inactive) | > 100 µM (inactive) | > 100 µM (inactive) |  | > 100 µM (inactive) | > 100 µM (inactive) |  |  | 
23 | O=C(Cl)c1cc([N+](=O)[O-])cc([N+](=O)[O-])c1 | > 100 µM (inactive) | > 100 µM (inactive) |  | > 100 µM (inactive) | > 100 µM (inactive) | > 100 µM (inactive) | > 100 µM (inactive) |  | 
24 | COc1cccc(NC(=O)CC(=O)N2N=C(N3c4ccccc4Sc4ccccc43)CC2c2ccccc2)c1 (configuration not stated) | > 100 µM (inactive) |  | > 100 µM (inactive) | > 100 µM (inactive) | > 100 µM (inactive) | > 100 µM (inactive) | > 100 µM (inactive) |  | 9.48 µM (inactive)
25 | O=C(Nc1cc([N+](=O)[O-])cc([N+](=O)[O-])c1)OC1C2CCC1C1OC1C2 (configuration not stated) | 30.5 µM (inactive) |  | > 50 µM (inactive) |  | > 50 µM (inactive) | > 50 µM (inactive) |  |  | 
26 | CC(=O)[O-].[O-]c1c(Cl)cc(Cl)cc1/C=N/Nc1ccccn1.[Zn+2] | 0.239 µM (active) |  | 3.7 µM (inactive) | 0.436 µM (active) | 0.745 µM (active) |  |  |  | 
27 | CCNC(=O)C(O)C1(O)CCC2[C@@H]3CCC4=CC(=O)C=C[C@]4(C)C3[C@@H](O)C[C@@]21C (some centres not stated) | 60.7 µM (inactive) | > 100 µM (inactive) | > 100 µM (inactive) | > 100 µM (inactive) | > 100 µM (inactive) | > 100 µM (inactive) | > 100 µM (inactive) | > 100 µM (inactive) | 33.3 µM (inactive)
28 | CC1=C(N2CC2)C(=O)c2nc3n(c2C1=O)CCC3OC(=O)CCl (configuration not stated) | 0.171 µM (active) | 0.049 µM (active) | 0.131 µM (active) | 0.0776 µM (active) | 0.0817 µM (active) | 0.193 µM (active) | 0.0301 µM (active) |  | 0.043 µM (active)
29 | C=C(CN(C)C)C(=O)c1ccc(OC)cc1 | 3.7 µM (inactive) | 3.8 µM (inactive) | 5.13 µM (inactive) | 1.69 µM (inactive) | 2.07 µM (inactive) | 2.36 µM (inactive) | 1.93 µM (inactive) |  | 3.78 µM (inactive)
30 | CNC=O | > 5160 µM (inactive) | > 10000 µM (inactive) | > 10000 µM (inactive) |  | > 10000 µM (inactive) | > 7830 µM (inactive) | > 9550 µM (inactive) |  | > 10000 µM (inactive)
31 | N[C@H](C(=O)O)[C@@H]1CC(Cl)=NO1 [ACIVICIN] | 5.53 µM (inactive) | 2.33 µM (inactive) | 1.36 µM (inactive) |  |  | 4.25 µM (inactive) | 23.8 µM (inactive) |  | 37.9 µM (inactive)
